The source of these data is PMC5084075 (ACS Central Science, 2016).

The target in data set [1] is T1, PfDHODH (Plasmodium falciparum, UniProt Q08210).
T1 sequence (Q08210 1-569): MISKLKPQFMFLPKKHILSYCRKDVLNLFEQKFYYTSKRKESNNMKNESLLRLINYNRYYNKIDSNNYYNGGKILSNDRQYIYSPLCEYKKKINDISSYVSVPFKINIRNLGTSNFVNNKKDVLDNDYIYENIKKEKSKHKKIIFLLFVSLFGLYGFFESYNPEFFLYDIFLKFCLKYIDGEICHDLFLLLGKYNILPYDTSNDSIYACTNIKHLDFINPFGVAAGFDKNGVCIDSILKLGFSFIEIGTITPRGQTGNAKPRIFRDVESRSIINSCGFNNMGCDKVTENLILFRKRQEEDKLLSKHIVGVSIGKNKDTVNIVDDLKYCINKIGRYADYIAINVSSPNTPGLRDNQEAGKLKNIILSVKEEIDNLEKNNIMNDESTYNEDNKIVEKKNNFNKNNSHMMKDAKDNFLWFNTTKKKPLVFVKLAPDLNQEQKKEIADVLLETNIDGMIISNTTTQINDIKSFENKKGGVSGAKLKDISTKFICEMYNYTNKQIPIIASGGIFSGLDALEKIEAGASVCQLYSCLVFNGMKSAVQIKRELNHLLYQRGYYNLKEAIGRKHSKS
Briefly: biochemical. Details: PfDHODH enzyme inhibition IC50. To be noted: read-out: DHODH. The text has this:
The potency of the near neighbor set led to an in silico target prediction study being performed on OSM-S-39 (Text S11). The method employed a naive Bayes statistical model identifying molecular structural features of small molecules with protein targets, using the ChEMBL database. Similar statistical approaches based on known activities of compounds have been successfully applied to identify targets of antitubercular compounds.[112]−[114] A total of 1,287 proteins were included for which at least 50 active compounds were known with activities <10 μM, with the other compounds in the database comprising the inactives. After the OSM compounds were scored against each target, the scores obtained were standardized by comparison with scores obtained through comparison with a random set of >10K compounds. The prediction list was culled for proteins relevant to malaria (3D7 proteome), and the analysis gave as the most likely candidate targets, in order of significance, carboxy-terminal domain RNA polymerase II polypeptide A small phosphatase 1 (Q8I3U9), dihydroorotate dehydrogenase (DHODH, Q08210), SUMO-activating enzyme subunit 2 (Q8I553) and 1 (Q8IHS2), and cyclin-dependent kinase 1 (P61075). […] A line of inquiry remaining open is the equivalent assays against the other targets identified in the in silico prediction.

The test system of data set [2] is Plasmodium falciparum mature stage V gametocytes (DGFA). The experiment in a line: microbe, parasite or virus in culture. Details: dual gamete formation assay, inhibition of male and female gamete formation. To be noted: 24 h. As to the method: The discrepancy in the data arising from these two gametocyte assays may arise from the slightly different cell biology assayed (stage IV/V gametocytes vs stage V mature gametocytes) or most likely is a function of the relative compound exposure times (96 h vs 24 h).

Data set [3] relates to T2, Plasmodium falciparum Pfal (K1).
T2 construct: K1
Briefly: microbe, parasite or virus in culture. Details: species or system erythrocytes; P. falciparum asexual blood-stage whole-cell growth inhibition, IC50. To be noted: K1, Erythrocyte, lab named in column head, read-out: Pfal (K1) IC50 (Batra). The method, then:
(§1) To confirm the promise of the two starting points OSM-S-5 and -6, they were evaluated against 3D7 (drug-sensitive) and K1 (chloroquine resistant) strains of Plasmodium falciparum in a whole cell assay and against HEK-293 cells as a cytotoxicity marker (Table SB1, Biological Protocols; tables with the prefix “SB” may be found in the Supporting Information). Biological data may be browsed in a static data set taken as a snapshot for this paper (Data Sets S1 (Excel), S2 (SDF)), online in a database constructed through periodic batch uploads,[68] or in a “living database” to which may be added future data;[69] the latter may be visualized in a web browser[70] using an open source system that was recently deployed in the Wikipedia Chemical Structure Explorer,[71] or the data may be downloaded and visualized offline with proprietary (Figure S4)[72] or open source (Figure S5)[73] tools). The evaluation was performed in three different institutions using different assays and widely employed controls; controls are important to assess reproducibility and interassay variability[74] but also to minimize possible bias in evaluating compounds where there are pre-existing data from other researchers already in the public domain (Figure S6).[75]

The test system of data set [4] is T3, Plasmodium falciparum Pfal (3D7).
T3 construct: 3D7
Briefly: microbe, parasite or virus in culture. To be noted: 3D7, Erythrocyte, lab named in column head, read-out: Pfal IC50 (Batra). Details: species or system erythrocytes; P. falciparum asexual blood-stage whole-cell growth inhibition, IC50. As to the method:
as §1

The subject of data set [5] is Plasmodium falciparum Pfal (strain not named in column head). The experiment in a line: microbe, parasite or virus in culture. Also on record: species or system P. falciparum blood stage culture; whole-cell asexual blood stage P. falciparum growth inhibition. To be noted: Batra assay. As to the method:
as §1

Data set [6] relates to T4, Plasmodium falciparum K1 (chloroquine resistant).
T4 construct: K1
Briefly: microbe, parasite or virus in culture. Details: species or system P. falciparum blood stage culture; whole-cell asexual blood stage P. falciparum growth inhibition. The note with it: Batra assay, read-out: Pfal (K1) IC50 (Batra). As to the method:
as §1

The target in data set [7] is T5, hERG (human ether-à-go-go-related gene ion channel) (Homo sapiens, UniProt Q12809).
T5 construct: gene KCNH2
T5 sequence (Q12809 whole entry): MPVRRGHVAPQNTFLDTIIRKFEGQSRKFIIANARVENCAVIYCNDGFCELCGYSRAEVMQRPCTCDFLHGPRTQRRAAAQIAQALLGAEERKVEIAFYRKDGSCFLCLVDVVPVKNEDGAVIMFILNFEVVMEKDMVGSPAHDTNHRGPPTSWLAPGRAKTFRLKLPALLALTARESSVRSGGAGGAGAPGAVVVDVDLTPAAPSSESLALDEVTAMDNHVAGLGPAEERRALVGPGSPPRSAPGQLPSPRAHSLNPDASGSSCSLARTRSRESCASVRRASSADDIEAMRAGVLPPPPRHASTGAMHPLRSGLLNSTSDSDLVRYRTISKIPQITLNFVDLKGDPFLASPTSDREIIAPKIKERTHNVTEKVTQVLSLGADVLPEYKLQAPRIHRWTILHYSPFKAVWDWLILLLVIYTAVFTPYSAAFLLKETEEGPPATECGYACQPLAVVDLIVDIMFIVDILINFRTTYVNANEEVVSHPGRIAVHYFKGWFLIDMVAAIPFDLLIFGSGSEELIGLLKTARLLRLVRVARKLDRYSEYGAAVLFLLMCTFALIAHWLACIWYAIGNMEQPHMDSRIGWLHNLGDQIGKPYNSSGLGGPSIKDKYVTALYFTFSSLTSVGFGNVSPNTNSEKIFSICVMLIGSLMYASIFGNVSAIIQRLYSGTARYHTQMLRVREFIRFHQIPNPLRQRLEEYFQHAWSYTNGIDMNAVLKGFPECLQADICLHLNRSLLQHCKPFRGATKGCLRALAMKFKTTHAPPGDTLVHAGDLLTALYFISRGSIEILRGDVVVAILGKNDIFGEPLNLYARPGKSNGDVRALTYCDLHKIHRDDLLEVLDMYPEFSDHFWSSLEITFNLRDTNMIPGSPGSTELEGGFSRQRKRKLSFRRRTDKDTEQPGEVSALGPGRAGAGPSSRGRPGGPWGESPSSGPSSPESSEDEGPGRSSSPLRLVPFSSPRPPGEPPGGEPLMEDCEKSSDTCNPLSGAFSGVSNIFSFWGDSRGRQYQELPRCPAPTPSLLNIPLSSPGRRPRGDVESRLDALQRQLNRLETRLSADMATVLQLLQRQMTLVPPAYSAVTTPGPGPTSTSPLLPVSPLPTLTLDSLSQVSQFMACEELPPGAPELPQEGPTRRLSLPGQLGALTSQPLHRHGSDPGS
The experiment in a line: cell-based. Details: hERG channel inhibition counterscreen. To be noted: read-out: hERG pIC50 (converted). An excerpt:
There is increasing awareness of the importance for drug candidates of inhibition of hERG (the human ether-à-go-go-related gene ion channel), which is sensitive to blockade by many drug-like structures. Such blockage has led to a number of prominent postmarketing withdrawals.[103] Regulators are sensitive to any hERG activity, and a hERG counterscreen is often now run early in hit characterization and series prioritization.
For orientation: The hERG channel carries a current that helps repolarise heart muscle cells.

The nature of data set [8]: in vitro. Also on record: stability in mouse plasma. To be noted: plasma; mouse plasma; read-out: t1/2 plasma Mouse. The method, then:
(§2) Representative compounds from both subseries were evaluated in an oral in vivo mouse trial (Data Set S22). The original starting points OSM-S-5 and -6 (Figure 2) were chosen along with NN representative OSM-S-35 (Figure 4). […] It is plausible that at least some of the arylpyrrole ester compounds would be degraded by general hydrolysis during absorption, and this could explain their inactivity in the mouse model despite their more favorable (although still high) cLogP values. […] Esterase activity is higher in rodents than in other species,[102] as confirmed by using p-nitrophenol acetate as a control compound in this assay.

Data set [9] in a line: in vitro. Details: plasma stability, half-life and per cent remaining. To be noted: plasma; plasma Mouse; read-out: t1/2 plasma Mouse. As to the method: as §2
Data set [10] can be described thus: in vitro. Details: metabolic stability in human liver microsomes, LC-MS, NADPH, 0.4 mg/mL protein. The note with it: liver microsomes, human liver microsomes. The method, then: (§3) The two original GSK hits (OSM-S-5 and -6) and six NN compounds were evaluated for their kinetic solubility in phosphate buffer and their metabolic stability in human liver microsomes (Table SB5, Data Sets S20 and S21).
On the technique in general: Microsomes from liver hold many membrane-bound enzymes, among them those of drug oxidation.

Data set [11] is described as follows: in vitro. Also on record: metabolic stability in mouse liver microsomes, LC-MS, NADPH, 0.4 mg/mL protein. The note with it: liver microsomes, mouse liver microsomes. As to the method: as §3
Data set [12] has as its system Plasmodium falciparum Pfal (strain not named in column head). The experiment in a line: microbe, parasite or virus in culture. Also on record: asexual blood stage P. falciparum whole-cell growth inhibition. The method, then:
as §1

[13] abbreviates: read-out: 0.4 / CLint, in vitro / (mL/min/mg protein).
[14] abbreviates: read-out: Protein Conc. (mg/mL): / Degradation half-life /.

Where two headings read alike, the source gives them in different places.

As usually defined, the inhibition is the share of the control response that was lost under treatment. Read a low inhibition as little suppression. Take `Cc1cc(C(=O)OCC(N)=O)c(C)n1-c1ccc(F)cc1` [OSM-S-5]: the IC50 was more than 50 µM in data set [1]; 0.641 µM in [3]; 0.581 µM in data set [4]; 0.581 µM in [5]; 0.641 µM in data set [6]; more than 31.6 µM in data set [7]. The inhibition at 1 µM is 13.5% in data set [2] (female gametocytes) and 5.1% in [2] (male gametocytes). Moreover, the half-life in [8] and in [9] was 1.9 h each time.
Regarding `Nc1ncnc2cc(-c3cccc(S(N)(=O)=O)c3)sc12` [OSM-S-106], the microsomal CLint in data set [10] (setting [13]) was less than 0.007 mL/min/mg; in data set [11] (setting [13]), 0.0471 mL/min/mg. Further, the half-life was more than 4.12 h in data set [10] (setting [14]) and 0.613 h in data set [11] (setting [14]). The IC50 in [12] stood at 0.036 µM.
